Measurements published in patent EP0227593A1, “Use of chelating agents” (THE HOSPITAL FOR SICK CHILDREN, priority 1985, dated 1987).

How the values were obtained:
HL-60 cells [1] = test: HL-60 colony growth with cytostatic compounds alone or with 1 µM DFO; format: cell-based, human; conditions: cytostatic alone, various concentrations
Experimental: HL-60 cells (10⁴/ml) were plated in 0.8 % methycellulose in RPMI-1640 medium supplemented with 20 % heat inactivated (56°C, 30 min) fetal calf serum at a final volume of 1 ml/culture plate. Cultures were set up in duplicates and maintained at 37°C in a 5 % CO₂ humidified atmosphere. Deferoxamine was dissolved in iron-free RPMI culture medium and added at the initiation of culture at different concentrations (1-10 µM). Colonies were counted at 7 days using an inverted microscope. A cluster of more than 20 cells was defined as a colony. Individual colonies were plucked from culture plates spread on glass slides and morphologically assessed after preparation with Wright's stain and non-specific esterase in the presence of fluoride (29). The self renewal capacity of cells was assessed according to McCulloch et al (30). RPMI-1640 medium was added to culture dishes for 2 hrs; the contents of each dish were then transferred into a tube, centrifuged and washed with medium three times. Cells from each dish were counted separately, and viability was assessed by trypan blue dye exclusion. Cells (1x10⁴/ml) from each dish were recultured in 0.8 % methylcellulose as before. […]
Cultures were evaluated at day 6 using an inverted microscope (100 x magnification). A cluster of more than 20 cells was determined as a colony.

L-1210 tumour cells = test: L-1210 tumour growth in mice; format: in vivo; conditions: day 8
Experimental: One hour prior to kill on day 8 the mice received one ip injection of 0.002 mCi of 3H-thymidine per g body weight. Cells were harvested from the peritoneal cavity, the volume of ascites measured and the cell counts determined in a coulter counter, after lysis of red cells with zap-oglobin, for calculation of total tumour cell numbers. Also, of each sample cell smears were done, Feulgen stained and autoradiographed, whereby the number and percentage of labelled cells was determined and used as a measure for proliferating cells.

Lewis lung carcinoma = test: Tumour growth and metastases of Lewis lung carcinoma in mice; format: in vivo; conditions: 5 injections
Experimental: Female C57B16 mice (10 mice/group, 18-22 g body weight) were i.m. injected into the left hind leg with 0.1 ml of a tumour cell suspension of Lewis lung carcinoma (day 0).
Nine groups of animals were investigated. The test compounds were s.c. administered as follows: physiological saline: once daily for eleven days starting from day 0 up to day 10. DFO: 0.5 ml in distilled water in a dose of 10 and 30 mg/kg once daily for eleven days, on day 0 up to day 10 after tumour inocculation. 10-EDAM: 0.5 ml in distilled water in a dose of 3 and 6 mg/kg, once daily on days 1, 3, 5, 7 and 9 after tumour inocculation.
Both hind legs were removed from the body, weighed, and the difference between the tumour bearing and the tumour free leg was taken as the tumour weight of one idividual mouse.
Lungs were filled up with Pelikan-ink via the trachea, fixed in Fekete-solution and metastases (white spot on black back-ground) on the lung surface were counted microscopically.

HL-60 cells [2] = test: Colony growth of HL-60 cells; format: cell-based, human; conditions: concentration of 10 µm
Experimental: HL-60 cells, a promyeloctic leukemia cell line originally developed by Dr. R. Gallo, NIH, were used. Cells were grown in RPMI supplemented with 10 % heat inactivated fetal calf serum (FCS, Flow Laboratories, Rockville, MO) and 2 mM glutamine (Gibco, Berkely, CA), at densities ranging from 1-2 x 10⁵/ml to 1-10⁶/ml, in a 5 % CO₂ humidified atmosphere at 37°C.
HL-60 cells (10⁴/ml) were plated in 0.8 % methycellulose in RPMI-1640 medium supplemented with 20 % heat inactivated (56°C, 30 min) fetal calf serum at a final volume of 1 ml/culture plate. Cultures were set up in duplicates and maintained at 37°C in a 5 % CO₂ humidified atmosphere. Deferoxamine was dissolved in iron-free RPMI culture medium and added at the initiation of culture at different concentrations (1-10 µM). Colonies were counted at 7 days using an inverted microscope. A cluster of more than 20 cells was defined as a colony. Individual colonies were plucked from culture plates spread on glass slides and morphologically assessed after preparation with Wright's stain and non-specific esterase in the presence of fluoride (29). The self renewal capacity of cells was assessed according to McCulloch et al (30). RPMI-1640 medium was added to culture dishes for 2 hrs; the contents of each dish were then transferred into a tube, centrifuged and washed with medium three times. Cells from each dish were counted separately, and viability was assessed by trypan blue dye exclusion. Cells (1x10⁴/ml) from each dish were recultured in 0.8 % methylcellulose as before.

[3] = DFO 400 mg/kg/d s.c. minipump from day 2, Ara-C 200 mg/kg once ip on day 6

Nc1ccn([C@@H]2O[C@H](CO)[C@@H](O)[C@@H]2O)c(=O)n1 [Ara-C, 1-β-D-arabinofuranosyl-cytosine]
HL-60 colony growth (HL-60 cells [1]): inhibited colony growth in a dose-dependent manner | proportions of proliferating cells (L-1210 tumour cells; 3H-thymidine labelled cells, same doses as Table 12): 26 % ± 6% | Number of cells in the peritoneal cavity % of control (L-1210 tumour cells; [3]): 30% | Number of cells in the peritoneal cavity x̄ ± SD (L-1210 tumour cells; [3]): 1.11 ± 0.40 * 10^8 | Number of proliferating cells in peritoneal cavity % of control (L-1210 tumour cells; [3]): 24% | Number of proliferating cells in peritoneal cavity x̄ ± SD (L-1210 tumour cells; [3]): 0.29 ± 0.10 * 10^8

CCC(Cc1cnc2nc(N)nc(N)c2n1)c1ccc(C(=O)N[C@@H](CCC(=O)O)C(=O)O)cc1 (stereo partly drawn) [10-EDAM, N-[4-[1-(2,4-Diamino-6-pteridinyl)but-2-yl]-benzoyl]-L-glutamic acid]
Number of lung metastases % of control (Lewis lung carcinoma; group 4: 10-EDAM 3 mg/kg s.c.): 66% | Number of lung metastases x̄ ± SD (Lewis lung carcinoma; group 4: 10-EDAM 3 mg/kg s.c.): 44 ± 18 | Tumour weight % of control (Lewis lung carcinoma; group 4: 10-EDAM 3 mg/kg s.c.): 91% | Tumour weight x̄ ± SD (Lewis lung carcinoma; group 4: 10-EDAM 3 mg/kg s.c.): 6.87 ± 0.47 g | Number of lung metastases % of control (Lewis lung carcinoma; group 5: 10-EDAM 6 mg/kg s.c.): 34% | Number of lung metastases x̄ ± SD (Lewis lung carcinoma; group 5: 10-EDAM 6 mg/kg s.c.): 23 ± 10 | Tumour weight % of control (Lewis lung carcinoma; group 5: 10-EDAM 6 mg/kg s.c.): 89% | Tumour weight x̄ ± SD (Lewis lung carcinoma; group 5: 10-EDAM 6 mg/kg s.c.): 6.70 ± 1.06 g

CN(Cc1cnc2nc(N)nc(N)c2n1)c1ccc(C(=O)N[C@@H](CCC(=O)O)C(=O)O)cc1 [methotrexate, L-(+)-N-[4-N-(2,4-diamino-6-pteridinyl)-methyl-N-methyl-amino]-benzoyl-L-glutamic acid]
HL-60 colony growth (HL-60 cells [1]): dose-dependent growth inhibitory effect

CC(=O)N([O-])CCCCCNC(=O)CCC(=O)N([O-])CCCCCNC(=O)CCC(=O)N([O-])CCCCCN.[Fe+3] [Ferrioxamine]
colony formation (HL-60 cells [2]): did not affect colony formation
